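Exposure lasted 48 hours, with cells grown in 96-well plates and compounds tested at five concentrations. Here, GI50 denotes the concentration required for 50% inhibition of growth. Definition used: TGI = concentration required for complete inhibition of growth.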
Key:
Assay in all cases: growth of human tumour cells (NCI), 48 h
[1] = tested on: 786-0 renal
[2] = tested on: A498 renal
[3] = tested on: A549 NSCLC
[4] = tested on: ACHN renal
[5] = tested on: BT-549 breast
[6] = tested on: CAKI-1 renal
[7] = tested on: CCRF-CEM leukemia
[8] = tested on: COLO 205 colon
[9] = tested on: DU-145 prostate
[10] = tested on: HCC-2998 colon
[11] = tested on: HCT-116 colon
[12] = tested on: HCT-15 colon
[13] = tested on: HL-60(TB) leukemia
[14] = tested on: HOP-62 NSCLC
[15] = tested on: HOP-92 NSCLC
[16] = tested on: HS 578T breast
[17] = tested on: HT29 colon
[18] = tested on: IGROV1 ovarian
[19] = tested on: K-562 leukemia
[20] = tested on: KM12 colon
[21] = tested on: LOX IMVI melanoma
[22] = tested on: M14 melanoma
[23] = tested on: MALME-3M melanoma
[24] = tested on: MCF7 breast
[25] = tested on: MDA-MB-231 breast
[26] = tested on: MDA-MB-435
[27] = tested on: MOLT-4 leukemia
[28] = tested on: NCI-H226 lung
[29] = tested on: NCI-H23 lung
[30] = tested on: NCI-H460 lung
[31] = tested on: NCI-H522 lung
[32] = tested on: NCI/ADR-RES ovarian
[33] = tested on: OVCAR-3 ovarian
[34] = tested on: OVCAR-4 ovarian
[35] = tested on: OVCAR-5 ovarian
[36] = tested on: OVCAR-8 ovarian
[37] = tested on: PC-3 prostate
[38] = tested on: RPMI-8226 leukemia
[39] = tested on: RXF 393 renal
[40] = tested on: SF-268 CNS
[41] = tested on: SF-295 CNS
[42] = tested on: SF-539 CNS
[43] = tested on: SK-MEL-2 melanoma
[44] = tested on: SK-MEL-28 melanoma
[45] = tested on: SK-MEL-5 melanoma
[46] = tested on: SK-OV-3 ovarian
[47] = tested on: SN12C renal
[48] = tested on: SNB-19 CNS
[49] = tested on: SNB-75 CNS
[50] = tested on: SR leukemia
[51] = tested on: SW-620 colon
[52] = tested on: T-47D breast
[53] = tested on: TK-10 renal
[54] = tested on: U251 CNS
[55] = tested on: UACC-257 melanoma
[56] = tested on: UACC-62 melanoma
[57] = tested on: UO-31 renal

Molecule Cn1cc(C2=C(c3c4n(c5ccccc35)CCN(C(N)=S)C4)C(=O)NC2=O)c2ccccc21 has a GI50 [1] of 5.23 µM, a TGI [1] of over 25 µM and a GI50 [2] of 1.59 µM. For the same molecule, the TGI [2] was 9.64 µM, the GI50 [3] was 5.55 µM and the TGI [3] was over 25 µM. For the same molecule, the GI50 [4] was 5.95 µM, the TGI [4] was over 25 µM and the GI50 [5] was 6.83 µM. The TGI [5] was over 25 µM, the GI50 [6] was 4.85 µM and the TGI [6] was over 20.8 µM. It also gave a GI50 [7] of 4.61 µM, a TGI [7] of over 25 µM and a GI50 [8] of 5.97 µM. For the same molecule, the TGI [8] was over 21.6 µM, the GI50 [9] was 8.04 µM and the TGI [9] was over 23.1 µM. The GI50 [10] was 6.13 µM, the TGI [10] was 20.8 µM and the GI50 [11] was 4.11 µM. It also gave a TGI [11] of over 16.8 µM, a GI50 [12] of 6.31 µM and a TGI [12] of over 25 µM. The GI50 [13] was 2.33 µM, the TGI [13] was 8.05 µM and the GI50 [14] was 6.81 µM. It also gave a TGI [14] of over 25 µM, a GI50 [15] of 8.82 µM and a TGI [15] of over 25 µM. For the same molecule, the GI50 [16] was 0.88 µM, the TGI [16] was 11.1 µM and the GI50 [17] was 2.28 µM. For the same molecule, the TGI [17] was over 25 µM, the GI50 [18] was 7.82 µM and the TGI [18] was over 19.1 µM. The GI50 [19] was 1.59 µM, the TGI [19] was over 17 µM and the GI50 [20] was 3.05 µM. The TGI [20] was 9.69 µM, the GI50 [21] was 2.5 µM and the TGI [21] was over 25 µM. For the same molecule, the GI50 [22] was 4.71 µM, the TGI [22] was over 25 µM and the GI50 [23] was over 11 µM. For the same molecule, the TGI [23] was over 25 µM, the GI50 [24] was 1.24 µM and the TGI [24] was over 17.2 µM. The GI50 [25] was 6.95 µM, the TGI [25] was over 23.2 µM and the GI50 [26] was 0.883 µM. For the same molecule, the TGI [26] was 5.98 µM, the GI50 [27] was 5.12 µM and the TGI [27] was over 20.9 µM. For the same molecule, the GI50 [28] was 5.84 µM, the TGI [28] was over 19 µM and the GI50 [29] was 7.34 µM. For the same molecule, the TGI [29] was over 25 µM, the GI50 [30] was 6.91 µM and the TGI [30] was over 22.8 µM. The GI50 [31] was 1.95 µM, the TGI [31] was over 15 µM and the GI50 [32] was 9.48 µM. For the same molecule, the TGI [32] was over 25 µM, the GI50 [33] was 1.75 µM and the TGI [33] was 7.36 µM. It also gave a GI50 [34] of 6.87 µM, a TGI [34] of over 25 µM and a GI50 [35] of 16 µM. The TGI [35] was over 25 µM, the GI50 [36] was 7.13 µM and the TGI [36] was over 25 µM. It also gave a GI50 [37] of 4.92 µM, a TGI [37] of over 25 µM and a GI50 [38] of 12.9 µM. It also gave a TGI [38] of over 25 µM, a GI50 [39] of 2.34 µM and a TGI [39] of 10.6 µM. It also gave a GI50 [40] of 5.58 µM, a TGI [40] of over 25 µM and a GI50 [41] of 2.64 µM. For the same molecule, the TGI [41] was 10.8 µM, the GI50 [42] was 1.48 µM and the TGI [42] was 7.86 µM. For the same molecule, the GI50 [43] was 4.32 µM, the TGI [43] was 13 µM and the GI50 [44] was 5.34 µM. For the same molecule, the TGI [44] was over 25 µM, the GI50 [45] was 2.67 µM and the TGI [45] was over 16.7 µM. The GI50 [46] was 4.51 µM, the TGI [46] was over 25 µM and the GI50 [47] was 6.99 µM. It also gave a TGI [47] of over 25 µM, a GI50 [48] of 12.8 µM and a TGI [48] of over 25 µM. For the same molecule, the GI50 [49] was 0.36 µM, the TGI [49] was 10.6 µM and the GI50 [50] was 1.35 µM. For the same molecule, the TGI [50] was over 15.1 µM, the GI50 [51] was 3.45 µM and the TGI [51] was over 25 µM. The GI50 [52] was 10.4 µM, the TGI [52] was over 25 µM and the GI50 [53] was 8.64 µM. It also gave a TGI [53] of over 23.7 µM, a GI50 [54] of 4.49 µM and a TGI [54] of 11.2 µM. The GI50 [55] was 7.11 µM, the TGI [55] was over 25 µM and the GI50 [56] was 4.27 µM. It also gave a TGI [56] of over 25 µM, a GI50 [57] of 4.37 µM and a TGI [57] of over 21.7 µM.

Reference: PubChem BioAssay (NCI)
